pIC50: −log10 of the molar value.
Assays:
[1] = Stability during storage (60° C., 75% R.H., 6 days), residual rate by thin layer densitometry; format: physicochemical; conditions: storage at 75% r.h.
Experimental: In the thin layer densitometry, spots each containing 100 μg of a test sample were applied onto thin layer plates. The spots were developed with a mixture of chloroform and ethanol (10:1, by volume). As the thin layer plates, TLC Plate Silica Gel 60 F254 (10×20 cm, 0.25 mm in thickness, a product of Merck & Co., Inc.) was used. The distance of development was 15 cm. The densitometry was effected by use of a Shimadzu Dichroic Chromatoscanner CS-910 (manufactured by Shimadzu Corporation) at a wavelength of 280 or 300 nm.

(H^+ +K^+)-ATPase = target: T1, (H^+ +K^+)-ATPase (Sus scrofa, UniProt P19156); assay: (H^+ +K^+)-ATPase inhibiting activity; format: biochemical; conditions: enzyme from hog fundus ventriculi; incubation with compound 35° to 37° C., 5 to 30 minutes
T1 construct: prepared from the fundus ventriculi of fresh hog stomachs; from tissue; host or cells: fundus ventriculi of fresh hog stomachs, prepared by the method of Saccomani et al. (J. Biol. Chem. 251, 7690, 1976)
Experimental: The (H^+ +K^+)-ATPase inhibiting activity of the present compounds [I] was determined in the following manner: […] The (H^+ +K^+)-ATPase used in the above test was prepared from the fundus ventriculi of fresh hog stomachs in accordance with the method of Saccomani et al. [The Journal of Biological Chemistry, Vol. 251, No. 23, p. 7690 (1976)]. […] The colorimetric measurement was effected at a wavelength range of from 360 to 400 nm. As a control experiment, the residual activity of (H^+ +K^+)-ATPase was determined in the same manner as above without addition of any test compounds. […] To be more specific, the difference between the colorimetric reading obtained in the control experiment and the colorimetric reading obtained with a test compound is calculated at various molar concentrations, and the difference is divided by the reading of the control experiment to give a rate of inhibition. With inhibition rates thus obtained, a density-inhibition rate curve is plotted, and the IC50 value is determined based on the curve. In the table is also shown, for the purpose of comparison, the (H^+ +K^+)-ATPase inhibiting activity of omeprazole determined in the same manner as above.

Acute toxicity (LD50) = conditions: rat, in vivo, 5 weeks old male Wistar rats
Experimental: Using 5 weeks old male Wistar rats, acute toxicity (LD50) of two representative compounds (compounds obtained in Examples 1 and 8) of the present compounds [I] was tested.

gastric acid secretion = assay: Gastric antisecretory effect (pylorus ligated rats); format: in vivo; conditions: Rattus norvegicus; po; male Wistar rats; pylorus ligated 1 hour after administration, total acid after 4 hours; read-out: Gastric Antisecretory Effect, ED50 (inhibition of total gastric acid by 50%)
Experimental: Exactly 1 hour after the completion of the administration, the pyloric regions of their stomachs were ligated. After 4 hours, the total acid contained in the gastric juice of each rat was determined. […] To collect the gastric juice, the rats were killed, and their stomachs were cut open. The total acid in the gastric juice was determined by titrating the juice with aqueous 0.1N sodium hydroxide solution until its pH reached 7.0. As a control experiment, the total acid contained in the gastric juice of rats not administered with the compounds was also determined in the same manner as above. […] In order to determine the ED50 value, the difference in total acid between a group of rats administered with a test compound and a group of rats not administered with any of the test compounds was calculated, and the difference was then divided by the total acid of the latter rats, so as to obtain a rate of inhibition. With inhibition rates thus obtained, a dosage-effect curve was plotted, and the ED50 value was determined on the basis of the curve. In the table is also shown, for the purpose of comparison, the ED50 value of omeprazole determined in the same manner as above.

[2] = stored without any special precautions; background statement; cited from earlier work
[3] = ip, administered intraperitoneally

T1 sequence (P19156 2-1034 limits assumed): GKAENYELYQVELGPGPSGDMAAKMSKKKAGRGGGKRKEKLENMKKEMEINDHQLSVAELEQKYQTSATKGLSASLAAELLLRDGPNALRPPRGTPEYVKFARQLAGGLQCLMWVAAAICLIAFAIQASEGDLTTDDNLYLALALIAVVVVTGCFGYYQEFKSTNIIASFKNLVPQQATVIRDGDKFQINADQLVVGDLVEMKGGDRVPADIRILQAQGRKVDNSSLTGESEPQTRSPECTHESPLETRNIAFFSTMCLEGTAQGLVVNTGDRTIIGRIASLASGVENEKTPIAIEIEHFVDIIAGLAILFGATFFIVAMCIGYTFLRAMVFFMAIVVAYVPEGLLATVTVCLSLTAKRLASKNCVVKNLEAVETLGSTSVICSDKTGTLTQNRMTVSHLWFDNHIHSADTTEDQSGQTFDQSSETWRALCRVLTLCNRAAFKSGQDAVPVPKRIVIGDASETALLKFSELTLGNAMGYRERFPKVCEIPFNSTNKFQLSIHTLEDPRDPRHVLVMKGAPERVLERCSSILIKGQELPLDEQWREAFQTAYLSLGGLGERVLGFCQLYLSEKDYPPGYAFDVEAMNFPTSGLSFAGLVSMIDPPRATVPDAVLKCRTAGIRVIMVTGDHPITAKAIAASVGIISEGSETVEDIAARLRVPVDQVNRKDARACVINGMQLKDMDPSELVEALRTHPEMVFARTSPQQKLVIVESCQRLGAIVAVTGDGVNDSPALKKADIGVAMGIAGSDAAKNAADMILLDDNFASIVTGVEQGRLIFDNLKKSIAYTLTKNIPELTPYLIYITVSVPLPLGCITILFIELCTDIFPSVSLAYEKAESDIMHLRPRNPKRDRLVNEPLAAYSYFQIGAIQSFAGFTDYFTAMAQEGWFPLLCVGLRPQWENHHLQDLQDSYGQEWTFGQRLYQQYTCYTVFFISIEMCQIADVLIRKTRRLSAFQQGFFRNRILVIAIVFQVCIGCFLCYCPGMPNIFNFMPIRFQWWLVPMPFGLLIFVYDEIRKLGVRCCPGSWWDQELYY
T1 sequence (P18434 whole entry partner): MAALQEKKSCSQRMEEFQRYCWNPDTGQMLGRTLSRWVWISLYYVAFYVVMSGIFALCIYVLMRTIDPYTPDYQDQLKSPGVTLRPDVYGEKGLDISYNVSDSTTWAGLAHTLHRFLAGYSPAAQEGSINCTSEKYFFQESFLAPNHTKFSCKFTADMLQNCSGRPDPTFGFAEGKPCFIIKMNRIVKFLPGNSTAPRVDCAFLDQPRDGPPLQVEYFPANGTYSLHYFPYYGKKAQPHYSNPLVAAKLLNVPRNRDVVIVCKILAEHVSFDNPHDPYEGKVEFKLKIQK

SMILES	remaining at 144 h [1] [%]	pIC50 ((H^+ +K^+)-ATPase)	LD50 (Acute toxicity (LD50); [3]) [mg/kg]	LD50 (Acute toxicity (LD50); po, administered orally) [mg/kg]	ED50 (gastric acid secretion) [mg/kg]	stability of omeprazole when stored (in words) [2]
COc1cc(C[S+]([O-])c2nc3cc(OCC4CC4)ccc3[nH]2)ncc1C (stereo not drawn) [Example 8, 2-[2-(4-methoxy-5-methyl)pyridylmethylsulfinyl]-5-cyclopropylmethyloxybenzimidazole]	32	3.52	≥ 500	≥ 4000	25.9	
Cc1cnc(C[S+]([O-])c2nc3c(OCC4CC4)cccc3[nH]2)c(C)c1C (stereo not drawn) [Example 5, 2-[2-(3,4,5-trimethyl)pyridylmethylsulfinyl]-4-cyclopropylmethyloxybenzimidazole]	86	2.72				
COc1c(C)cnc(C[S+]([O-])c2nc3c(OCC4CC4)cccc3[nH]2)c1C (stereo not drawn) [Example 6, 2-[2-(4-methoxy-3,5-dimethyl)pyridylmethylsulfinyl]-4-cyclopropylmethyloxybenzimidazole]	67	2.72				
Cc1cnc(C[S+]([O-])c2nc3cc(OCC4CC4)ccc3[nH]2)c(C)c1 (stereo not drawn) [Example 1, 2-[2-(3,5-dimethyl)pyridylmethylsulfinyl]-5-cyclopropylmethyloxybenzimidazole]	91	2.74	≥ 500	≥ 4000	17.8	
COc1cc(C[S+]([O-])c2nc3c(OCC4CC4)cccc3[nH]2)ncc1C (stereo not drawn) [Example 9, 2-[2-(4-methoxy-5-methyl)pyridylmethylsulfinyl]-4-cyclopropylmethyloxybenzimidazole]	76	3.37				
COc1c(C)cnc(C[S+]([O-])c2nc3cc(OCC4CC4)ccc3[nH]2)c1C (stereo not drawn) [Example 7, 2-[2-(4-methoxy-3,5-dimethyl)pyridylmethylsulfinyl]-5-cyclopropylmethyloxybenzimidazole]	37	2.77				
Cc1cnc(C[S+]([O-])c2nc3c(OCC4CC4)cccc3[nH]2)c(C)c1 (stereo not drawn) [Example 3, 2-[2-(3,5-dimethyl)pyridylmethylsulfinyl]-4-cyclopropylmethyloxybenzimidazole]	88	3.05			19.5	
COc1ccc2[nH]c([S+]([O-])Cc3ncc(C)c(OC)c3C)nc2c1 (stereo not drawn) [Omeprazole, 5-methoxy-2-[2-(4-methoxy-3,5-dimethyl)-pyridylmethylsulfinyl]benzimidazole, reference compound]	5	2.74			30.5	degraded at an unexpectedly high rate
Cc1ccnc(C[S+]([O-])c2nc3cc(OCC4CC4)ccc3[nH]2)c1 (stereo not drawn) [Example 2, 2-[2-(4-methyl)pyridylmethylsulfinyl]-5-cyclopropylmethyloxybenzimidazole]	59	2.68				
Cc1cnc(C[S+]([O-])c2nc3cc(OCC4CC4)ccc3[nH]2)c(C)c1C (stereo not drawn) [Example 4, 2-[2-(3,4,5-trimethyl)pyridylmethylsulfinyl]-5-cyclopropylmethyloxybenzimidazole]	94	3.00			22.1	

Source: patent publication US4753955A, “Benzimidazole derivatives” (Tokyo Tanabe Company, Ltd., priority 1986, dated 1988)
